The subject of assay [1] is acyl-CoA: sphingosine N-acyltransferase. The assay is described as follows: Enzyme activity in treated cerebral cortex culture: acyl-CoA: sphingosine N-acyltransferase. The format is cell-based, rat. More on the design: key: *: No accelerating activity. The following applies: culture treated with 15 μM for 40 hours. Here is the method: After the mixture was cultured for 40 hours, the resulting culture was harvested and pulverized in a homogenized buffer (50 mM Hepes, 0.32M sucrose) by using a chip type sonicator to prepare an enzyme source.
0.25 mM sphingosine and 0.45 mM ^14 C palmitoyl CoA (8.3×10^5cpm) were reacted in the presence of ATP (adenosine 5'-triphosphate). After ceramide which was a reaction product was subjected to solvent extraction, the extract was concentrated and evaporated to dryness, and its radioactivity was counted.

Assay [2] has as its system primary cultured rat cerebral neurocytes. The assay is described as follows: Ganglioside content (ganglioside-binding sialic acid) of primary cultured neurocytes. It is filed as cell-based. The following applies: Rattus norvegicus, 72 h, culture for 3 days, control defined as 100%. Here is the method: Rat fetuses at the 18th day of pregnancy were taken out, and forebrain base portions of the fetuses were extracted aseptically and cut into small pieces by scissors. After the pieces were treated with papain (in a phosphate buffer containing 0.02% L-cysteine containing 180 U papain, 0.02% bovine serum albumin and 0.5% glucose, pH 7.4, at 37° C. for 30 minutes), they were washed with a mixed solution (DF medium) of 1:1 of a Dulbecco modified Eagle's medium and a Ham's F12 medium and suspended in a DF medium containing 5% bovine fetal serum and 5% equine serum. This neurocyte suspension was charged into a culture plate with 24 wells (Falcon, Primaria) in an amount of 1×10^6 cells/well. […] After completion of the culture, the cells in the respective wells were washed with a phosphate buffer and recovered by rubber policeman. Further, a ganglioside fraction was extracted by adding chloroform/methanol/water (1:2:0.8) and shaking the mixture for 5 minutes. […] The no addition group (control) which was defined as 100% was compared with the test groups, and the results are shown in Table 1.

The structures appear in SMILES notation.

Turning to `CCCCCCCCCC(=O)N[C@@H](CN1CCOCC1)[C@@H](O)c1ccccc1` [L-threo-PDMP, 1-phenyl-2-decanoylamino-3-morpholino-1-propanol], the “Accelerating activity when enzyme activity of control is defined as 100%: Acyl-CoA: sphigosine N-acyltransferase” value in assay [1] is “*”. Moreover, the activity at 20 µM in assay [2] worked out at 127%.
